The structures appear in SMILES notation.

The test system of one assay is immunoglobulin light chain protein WIL-FL T46L. The experiment in a line: Differential scanning fluorimetry (thermal shift) assay. The assay is classed as binding. Conditions: Table A; temperature shift [Tm]compound-[Tm]vehicle; recombinant WIL-FL T46L. On the technique in general: In DSF a fluorescence change marks the thermal transition of the protein.
On to `Cc1cc(OC(C)c2ccc(F)c(Cl)c2)cn2nc(C(=O)N3CC[C@@]4(CCC(c5cccc(C(=O)O)n5)C4)C3)nc12` (some centres unmarked) [Compound 412], for which the DSF entry was “* (0-0.5° C.=*)”. With `Cc1cc(N2CCC(C)(c3ccc(O)cc3)C2)cn2nc(C(=O)N3CC[C@@]4(CCN(c5cccc(C(=O)O)n5)C4)C3)nc12` (some centres unmarked) [Compound 413], the DSF result was “**** (>1.5-2.5° C.=****)”.

Take `Cc1ccc([C@@]2(C)CCN(c3cc(C)c4nc(C(=O)N5C[C@@H]6CN(c7cccc(C(=O)O)n7)C[C@@H]6C5)nn4c3)C2)cc1` [Compound 414]: the DSF result was “***** (>2.5° C.=*****)”. For `Cc1cccc([C@@]2(C)CCN(c3cc(C)c4nc(C(=O)N5C[C@@H]6CN(c7cccc(C(=O)O)n7)C[C@@H]6C5)nn4c3)C2)c1` [Compound 415], the DSF result is recorded as “***** (>2.5° C.=*****)”.

In the case of `Cc1cccc([C@@]2(C)CCN(c3cc(C)c4nc(C(=O)N5CC[C@@]6(CCN(c7cccc(C(=O)O)n7)C6)C5)nn4c3)C2)c1` [Compound 416], the DSF result is “***** (>2.5° C.=*****)”. For the molecule `Cc1cc(N2CCC(C)(c3ccccc3Cl)C2)cn2nc(C(=O)N3CC[C@@]4(CCN(c5cccc(C(=O)O)n5)C4)C3)nc12` (some centres unmarked) [Compound 417], the DSF entry is recorded as “***** (>2.5° C.=*****)”.

As to `Cc1cc(N2CC[C@](C)(c3cccc(Cl)c3)C2)cn2nc(C(=O)N3C[C@@H]4CN(c5cccc(C(=O)O)n5)C[C@@H]4C3)nc12` [Compound 418], the DSF entry is reported as “***** (>2.5° C.=*****)”. In the case of `Cc1cc(N2CC[C@](C)(c3ccc(Cl)cc3)C2)cn2nc(C(=O)N3C[C@@H]4CN(c5cccc(C(=O)O)n5)C[C@@H]4C3)nc12` [Compound 420], the DSF entry was “***** (>2.5° C.=*****)”. In the case of `Cc1cc(N2CCC(C)(c3ccc(F)c(F)c3)C2)cn2nc(C(=O)N3C[C@@H]4CN(c5cccc(C(=O)O)n5)C[C@@H]4C3)nc12` (some centres unmarked) [Compound 421], the DSF entry is “***** (>2.5° C.=*****)”. Consider `Cc1cc(N2CCC(C)(c3ccc(F)cc3)C2)cn2nc(C(=O)NC3CCN(c4ccnc(C(=O)O)c4)CC3)nc12` (centres unmarked) [Compound 422], for which the DSF result is listed as “***** (>2.5° C.=*****)”.

On to `Cc1cc(N2CCC(C)(c3ccc(F)cn3)C2)cn2nc(C(=O)N3CC[C@@]4(CCN(c5cccc(C(=O)O)n5)C4)C3)nc12` (some centres unmarked) [Compound 423], for which the DSF entry was “*** (>1-1.5° C.=***)”.

For `Cc1cc(N2CCC(C)(c3cncc(F)c3)C2)cn2nc(C(=O)N3CC[C@@]4(CCN(c5cccc(C(=O)O)n5)C4)C3)nc12` (some centres unmarked) [Compound 424], the DSF result is listed as “**** (>1.5-2.5° C.=****)”. On to `CNC(=O)c1nc2c(C)cc(N3CCC(C)(c4ccccc4F)C3)cn2n1` (centres unmarked) [Compound 425], for which the DSF result is recorded as “***** (>2.5° C.=*****)”. `Cc1cc(N2CCC(C)(c3ccccc3F)C2)cn2nc(C(=O)N3CC[C@@]4(CCN(c5cccc(C(=O)O)n5)C4)C3)nc12` (some centres unmarked) [Compound 426]: the DSF entry is on record as “***** (>2.5° C.=*****)”.

Take `Cc1cc(N2CCC(C)(c3cccnc3)C2)cn2nc(C(=O)N3CC[C@@]4(CCN(c5cccc(C(=O)O)n5)C4)C3)nc12` (some centres unmarked) [Compound 427]: the DSF result is “*** (>1-1.5° C.=***)”. Take `Cc1cc(N2CC[C@@](C)(c3ccc(F)cc3)C2)cn2nc(C(=O)N3CC[C@@]4(CCN(c5cccc(C(=O)O)n5)C4)C3)nc12` [Compound 428]: the DSF entry is reported as “***** (>2.5° C.=*****)”.

`Cc1cc(N2CC[C@](C)(c3ccc(F)cc3)C2)cn2nc(C(=O)N3CC[C@@]4(CCN(c5cccc(C(=O)O)n5)C4)C3)nc12` [Compound 429]: the DSF entry was “***** (>2.5° C.=*****)”. Same read-out and setting: for `Cc1cc(N2CCC(C)(C#N)C2)cn2nc(C(=O)N3CC4CN(c5cccc(C(=O)O)n5)CC4C3)nc12` (centres unmarked) [Compound 430] the value was “* (0-0.5° C.=*)”; for `Cc1cc(N2CC3(c4ccccc4)CC2C3)cn2nc(C(=O)N3CC4CN(c5cccc(C(=O)O)n5)CC4C3)nc12` (centres unmarked) [Compound 431], “* (0-0.5° C.=*)”; for `Cc1cc(N2CCOC(C)(c3ccccc3)C2)cn2nc(C(=O)N3CC4CN(c5cccc(C(=O)O)n5)CC4C3)nc12` (centres unmarked) [Compound 432], “* (0-0.5° C.=*)”. Regarding `CNC(=O)c1cc2c(C)cc(N3CC[C@](C)(c4ccccc4)C3)cn2n1` [Compound 433], the DSF result is given as “***** (>2.5° C.=*****)”. As to `CNC(=O)c1cn2cc(N3CC[C@](C)(c4ccccc4)C3)cc(C)c2n1` [Compound 434], the DSF entry is listed as “***** (>2.5° C.=*****)”. As to `CNC(=O)c1nc2c(C)cc(N3CC[C@@](C)(c4ccccc4)C3)cc2o1` [Compound 435], the DSF result is “***** (>2.5° C.=*****)”.

On to `Cc1n[nH]c(C2C3COC2(c2nc4c(C)cc(OC[C@H](C)c5ccccc5)cn4n2)C3)n1` (some centres unmarked) [Compound 436], for which the DSF result is recorded as “***** (>2.5° C.=*****)”. Still for that read-out and setting: for `Cc1cc(OC[C@H](C)c2ccccc2)cn2nc(C34CC(CO3)C4C(N)=O)nc12` (some centres unmarked) [Compound 437] the value was “*** (>1-1.5° C.=***)”. As to `Cc1cc(N2CC[C@](C)(c3ccccc3)C2)cn2nc(C34CC(CO3)C4c3nc(N)n[nH]3)nc12` (stereo partly drawn) [Compound 438, 5-[1-[8-methyl-6-[(3R)-3-methyl-3-phenyl-pyrrolidin-1-yl]-[1,2,4]triazolo[1,5-a]pyridine-2-yl]-2-oxabicyclo[2.1.1]hexan-5-yl]-1H-1,2,4-triazol-3-amine], the DSF entry was “***** (>2.5° C.=*****)”.

As to `Cc1cc(N2CC[C@](C)(c3ccccc3)C2)cn2nc(C(=O)N3CC4(C(=O)O)CC3C4)nc12` [Compound 439], the DSF entry was “***** (>2.5° C.=*****)”.

The assay is the same for the next values; noted with them: Table B; temperature shift [Tm]compound-[Tm]vehicle; recombinant WIL-FL T46L.
Turning to `Cc1cc(N2CC[C@](C)(c3ccccc3)C2)cn2nc(C34CC(C(=O)NC(C)(C)C(=O)O)(CO3)C4)nc12` [Compound 440, (R)-2-methyl-2-(1-(8-methyl-6-(3-methyl-3-phenylpyrrolidin-1-yl)-[1,2,4]triazolo[1,5-a]pyridin-2-yl)-2-oxabicyclo[2.1.1]hexane-4-carboxamido)propanoic acid], the DSF entry was “***** (>2.5° C.=*****)”. On to `Cc1cc(N2CC[C@](C)(c3ccccc3)C2)cn2nc(C34CC(C(=O)N[C@@H]5COC[C@H]5O)(CO3)C4)nc12` [Compound 441], for which the DSF entry is recorded as “***** (>2.5° C.=*****)”. As for `Cc1cc(N2CC[C@](C)(c3ccccc3)C2)cn2nc(C34CC(C(=O)N[C@@H](C)CO)(CO3)C4)nc12` [Compound 442], the DSF entry is given as “***** (>2.5° C.=*****)”. With `Cc1cc(N2CC[C@](C)(c3ccccc3)C2)cn2nc(C34CC(C(=O)NC(C)C)(CO3)C4)nc12` [Compound 443], the DSF result is listed as “***** (>2.5° C.=*****)”. As to `Cc1cc(N2CC[C@](C)(c3ccccc3)C2)cn2nc(C34CC(C(=O)NCC(=O)O)(CO3)C4)nc12` [Compound 444], the DSF result is “***** (>2.5° C.=*****)”.

Regarding `Cc1cc(N2CC[C@](C)(c3ccccc3)C2)cn2nc(C34CC(C(=O)N5CC6C(C5)C6C(=O)O)(CO3)C4)nc12` (some centres unmarked) [Compound 445], the DSF result is “***** (>2.5° C.=*****)”. Still for that read-out and setting: for `Cc1cc(N2CC[C@](C)(c3ccccc3)C2)cn2nc(C34CC(C(=O)NC5CCOC5)(CO3)C4)nc12` (some centres unmarked) [Compound 446] the value was “***** (>2.5° C.=*****)”.

For the molecule `Cc1ncn(CC23COC(c4nc5c(C)cc(N6CC[C@](C)(c7ccccc7)C6)cn5n4)(C2)C3)n1` [Compound 447], the DSF entry is listed as “***** (>2.5° C.=*****)”.

Regarding `Cc1nc(CNC(=O)C23COC(c4nc5c(C)cc(N6CC[C@](C)(c7ccccc7)C6)cn5n4)(C2)C3)n[nH]1` [Compound 448], the DSF result was “***** (>2.5° C.=*****)”. As for `Cc1cc(N2CC[C@](C)(c3ccccc3)C2)cn2nc(C34CC(Cn5ncnc5C)(CO3)C4)nc12` [Compound 449], the DSF entry is recorded as “***** (>2.5° C.=*****)”.

With `Cc1cnn(CC23COC(c4nc5c(C)cc(N6CC[C@](C)(c7ccccc7)C6)cn5n4)(C2)C3)n1` [Compound 450], the DSF result is given as “***** (>2.5° C.=*****)”. In the case of `Cc1cc(N2CC[C@](C)(c3ccccc3)C2)cn2nc(C34CC(Cn5nncc5C)(CO3)C4)nc12` [Compound 451], the DSF entry was “***** (>2.5° C.=*****)”. `Cc1cc(NC(=O)C23COC(c4nc5c(C)cc(N6CC[C@](C)(c7ccccc7)C6)cn5n4)(C2)C3)cc(C(=O)O)n1` [Compound 452]: the DSF entry is reported as “***** (>2.5° C.=*****)”. Same read-out and setting: for `Cc1cc(N2CC[C@](C)(c3ccccc3)C2)cn2nc(C34CC(C(=O)NCc5ccnc(C(=O)O)c5)(CO3)C4)nc12` [Compound 453] the value was “***** (>2.5° C.=*****)”; for `Cc1cc(N2CC[C@](C)(c3ccccc3)C2)cn2nc(C34CC(NC(=O)Nc5cccc(C(=O)O)n5)(CO3)C4)nc12` [Compound 454], “***** (>2.5° C.=*****)”; for `Cc1cc(N2CC[C@](C)(c3ccccc3)C2)cn2nc(C34CC(C(=O)Nc5ccnc(C(=O)O)c5)(CO3)C4)nc12` [Compound 456], “***** (>2.5° C.=*****)”. `Cc1cc(N2CC[C@](C)(c3ccccc3)C2)cn2nc(C34CC(CNC(=O)CC(C)(C)O)(CO3)C4)nc12` [Compound 457, (R)-3-hydroxy-3-methyl-N-((1-(8-methyl-6-(3-methyl-3-phenylpyrrolidin-1-yl)-[1,2,4]triazolo[1,5-a]pyridin-2-yl)-2-oxabicyclo[2.1.1]hexan-4-yl)methyl)butanamide]: the DSF result is reported as “***** (>2.5° C.=*****)”. Same read-out and setting: for `Cc1cc(N2CC[C@](C)(c3ccccc3)C2)cn2nc(C34CC(COCC(=O)O)(CO3)C4)nc12` [Compound 459, 2-[[1-[8-methyl-6-[(3R)-3-methyl-3-phenyl-pyrrolidin-1-yl]-[1,2,4]triazolo[1,5-a]pyridin-2-yl]-2-oxabicyclo[2.1.1]hexan-4-yl]methoxy]acetic acid] the value was “***** (>2.5° C.=*****)”; for `Cc1cc(N2CC[C@](C)(c3ccccc3)C2)cn2nc(C34CC(CC(=O)Nc5cccc(C(=O)O)n5)(CO3)C4)nc12` [Compound 460, 6-[[2-[1-[8-methyl-6-[(3R)-3-methyl-3-phenyl-pyrrolidin-1-yl]-[1,2,4]triazolo[1,5-a]pyridin-2-yl]-2-oxabicyclo[2.1.1]hexan-4-yl]acetyl]amino]pyridine-2-carboxylic acid], “***** (>2.5° C.=*****)”. On to `Cc1cc(N2CC[C@](C)(c3ccccc3)C2)cn2nc(C34CC(CNc5cccc(C(=O)O)n5)(CO3)C4)nc12` [Compound 461], for which the DSF entry was “***** (>2.5° C.=*****)”.

The record behind these values is patent US20260285857A1, “BICYCLIC AND HETEROCYCLIC AMIDE COMPOUNDS” (priority 2024, published 2026).
